Assay results reported in ChEMBL document CHEMBL5370565, “Inhibition of Cysteine Proteases via Thiol-Michael Addition Explains the Anti-SARS-CoV-2 and Bioactive Properties of Arteannuin B” (J Nat Prod, 2023).

Test system: SARS-CoV-2
Assay: Antiviral activity against SARS-CoV-2 nCoV-2019BetaCoV/Wuhan/WIV04/2019 infected in African green monkey Vero E6 cells assessed as reduction in viral yield preincubated with cells for 1 hrs followed by viral infection for 1 hrs with subsequent replacement of fresh media containing compound and measured 24 hrs post infection by qRT-PCR analysis
Format: functional, organism-based
Details: Severe acute respiratory syndrome coronavirus 2, nCoV-2019BetaCoV/Wuhan/WIV04/2019, Vero C1008

For `C=C1C(=O)O[C@@]23C1CC[C@@H](C)[C@@H]2CC[C@@]1(C)O[C@@H]31` (stereo partly specified), the EC50 was 10.3 µM.
